Experimental data reported in PMC12188320 (2025).

Assays:
[1] = system: NRAS (RNA, G4) UGUGGGAGGGGCGGGUCUGGGUGC; assay: luminescence and absorbance titration; settings: K+ (10 mM potassium phosphate, 100 mM KCl); RNase-free buffer; Ru-PIC 2 µM, NRAS 0-6 µM; negligible spectral change; no constant
[2] = system: NRAS (RNA, G4) UGUGGGAGGGGCGGGUCUGGGUGC; assay: CD melting; settings: Li+ (10 mM LiCl, 100 mM lithium cacodylate); pH 7; NRAS 5 µM, Ru-PIC 2 equivalents (10 µM); no stabilization observed
[3] = system: CMYC (DNA, G4) TGGGGAGGGTGGGGAGGGTGGGGAAGG; assay: CD melting; settings: Li+ (10 mM LiCl, 100 mM lithium cacodylate; supplement: 90 mM LiCl, 10 mM cacodylate); pH 7; CMYC 5 µM, Ru-PIC 2 equivalents (10 µM)
[4] = system: CMYC (DNA, G4) TGGGGAGGGTGGGGAGGGTGGGGAAGG; assay: absorbance and luminescence titration; settings: K+ (10 mM potassium phosphate, 100 mM KCl); Ru-PIC 10 µM, CMYC 0-30 µM; no constant

O=C(O)c1ccc(-c2nc3c4cccnc4c4ncccc4c3[nH]2)cc1.[Ru+2].c1ccc(-c2ccccn2)nc1.c1ccc(-c2ccccn2)nc1
binding [1]: weak
binding [2]: no
ΔTm [3]: 9.1 ± 0.3 °C
binding [4]: yes
